Data taken from patent publication US20250051283A1, “THERAPEUTIC COMPOUNDS AND METHODS” (priority 2023, published 2025).

What was measured:
EV-D68 US/MO/14-18947 = assay: CPE assay (neutral red) with EV-D68 US/MO/14-18947 in R.D. cells; type: cell-based, Enterovirus D68; details: CPE assay, EV-D68 US/MO/14-18947 in R.D. cells
How it was run: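 R.D. cells infected (DMEM, 2% FBS, 30 mM MgCl2) for ≥1 h at 33° C before compound addition; CPE read by neutral red uptake ([…], 2 h, A540), plaque reduction under 1.2% avicel overlay, stained after 3 days. EC50 and CC50 (uninfected cells) from dose-response curve fits.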

EV-D68 2A^pro = EV-D68 2A^pro (Enterovirus D68, UniProt A0A097BW19); assay: FRET-based enzymatic assay of EV-D68 2Apro inhibition; type: biochemical
EV-D68 2A^pro, sequence (A0A097BW19 entry or part of it): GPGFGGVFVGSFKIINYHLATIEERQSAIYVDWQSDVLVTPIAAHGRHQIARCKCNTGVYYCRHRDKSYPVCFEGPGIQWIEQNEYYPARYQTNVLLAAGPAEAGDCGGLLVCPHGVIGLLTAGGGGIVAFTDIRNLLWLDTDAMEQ
Experimental: Protein expression and purification. EV-D68 2A^pro gene from strain US/KY/14-18953 was ordered from Genscript (Piscataway, NJ) in pET28b(+) vector with E. coli codon optimization. 2A^pro gene was subcloned into pE-SUMOstar vector according to the manufacturers protocol. Plasmid encoding WT-2A^pro was transformed into BL21(DE3) competent E. coli cells, and a single colony was picked and used to inoculate 10 mL of L.B. grown supplemented with 50 μg/mL kanamycin at 37° C. at 250 rpm. The 10 mL inoculant was added to 1 L of L.B. with 50 μg/mL kanamycin and grown to an OD600 of 0.8-1.0, cooled to 18° C., then induced using 0.5 mM IPTG. Induced cultures were incubated at 18° C. for an additional 24 h, then harvested and resuspended in lysis buffer (25 mM Tris (pH 7.5); 750 mM NaCl, 2 mM DTT with 0.5 mg/mL lysozyme, 0.5 mM PMSF and 0.02 mg/mL DNase I) and lysed with alternating sonication and French press cycles. The cell debris were removed by centrifugation at 12,000×g for 45 min […]. The supernatant was incubated with Ni-NTA resin for over 2 h at 4° C. on a rotator. The Ni-NTA resin was thoroughly washed with 50 mM imidazole in wash buffer (50 mM Tris (pH 7.5), 150 mM NaCl, and 2 mM DTT); for the SUMO-tagged protein, the protein was directly eluted with 300 mM imidazole; for the nontagged 2A^pro Ni-NTA resin was treated with SUMO Protease 1 to remove the SUMO tag, then 2A^pro was washed off from the column with 10 mM imidazole in wash buffer. The imidazole was removed via dialysis or 10 K molecular weight cut-off centrifugal concentrator spin column. The purity of the protein was confirmed with SDS-PAGE. The protein concentration was determined by classic BCA assay using bovine serum albumin as a standard. EV-D68 3C^pro in pET28b(+) vector was expressed as previously described^10.
Peptide synthesis. The FRET substrate of EV-D68 2A^pro, Dabcyl-KIRIVNT/GPGFGGE-Edans, was synthesized using the Fmoc solid phase synthesis strategy.
Enzymatic assays. The reaction buffer contains 50 mM Tris (pH7.0), 150 mM NaCl, 10% Glycerol, and 2 mM DTT, and the reaction was carried out at 30° C. in Cytation 5 imaging reader (Fisher Scientific) with EX360/40-EM460/40 filter. Reactions were monitored every 90 sec. […] The reaction was initiated by adding 20 μM of FRET substrate, and the reaction was monitored for 2 hours and initial velocity was calculated for the first 30 minutes via linear regression.

[1] = Cytotoxicity by neutral red uptake in R.D. cells, no viral infection; type: cell-based, Human; details: human, R.D. (rhabdomyosarcoma, ATCC CCL-136) cells, uninfected
Experimental: (§1) Cell lines and viruses. Human rhabdomyosarcoma (R.D., ATCC, CCL-136) cells were maintained at 37° C. in a 5% CO2 atmosphere and cultured in Dulbecco's modified Eagle's medium (DMEM) supplemented with 10% fetal bovine serum (FBS) and 1% penicillin-streptomycin antibiotics. The following reagents were obtained through BEI Resources, NIAID, NIH: Human Enterovirus D68, US/MO/14-18949, NR-49130; Enterovirus D68, US/MO/14-18947, NR-49129; Enterovirus D68, US/IL/14-18952, NR-49131; Enterovirus D68, US/KY/14-18953, NR-49132; Enterovirus D68, US/IL/14-18956, NR-49133.
(§2) Antiviral assays. Cells for antiviral assays were seeded and grown overnight at 37° C. in a 5% CO2 atmosphere for ˜90% confluency the next day. For all infections, cells were washed with PBS containing magnesium and calcium and infected with virus diluted in DMEM with 2% FBS and 30 mM MgCl2. Viruses were incubated for at least 1 h at 33° C. in a 5% CO2 atmosphere, followed by the addition of compound as well as 1% penicillin-streptomycin. For CC50 measurements, the experiment was performed similarly but excluded viral infection. For cytopathic effect (CPE) assays, cells were stained with 66 µg/mL neutral red for 2 h and neutral red uptake was measured at absorbance 540 nm using a Multiskan FC Microplate Photometer (ThermoFisher Scientific). The EC50 and CC50 values were calculated from best-fit dose response curves using GraphPad Prism. For plaque reduction assays, an 1.2% avicel microcrystalline cellulose (FMC BioPolymer, Philadelphia, PA) overlay was used and cells were stained after 3 days as previously described^26.

[2] = test system: EV-D68 US/IL/14-18952 (clade B2); assay: Broad-spectrum antiviral activity (Table 1), US/IL/14-18952; type: cell-based, Enterovirus D68; details: Enterovirus D, EVD68; EV-D68 US/IL/14-18952 (clade B2); read-out: EC50
Experimental: as §1
as §2, with “For CC50 measurements, the experiment was performed similarly but excluded viral infection.” left out, “For plaque reduction assays, an 1.2% avicel microcrystalline cellulose (FMC BioPolymer, Philadelphia, PA) overlay was used and cells were stained after 3 days as previously described^26.” left out

[3] = test system: five strains of EV-D68 (B1, B2, and D clades); assay: Broad-spectrum antiviral activity, summary over five EV-D68 strains; type: cell-based, Enterovirus D68
Experimental: as §1
as §2, with “For CC50 measurements, the experiment was performed similarly but excluded viral infection.” left out, “For plaque reduction assays, an 1.2% avicel microcrystalline cellulose (FMC BioPolymer, Philadelphia, PA) overlay was used and cells were stained after 3 days as previously described^26.” left out

[4] = test system: EV-D68 US/MO/14-18947 (clade B1); assay: Broad-spectrum antiviral activity (Table 1), US/MO/14-18947; type: cell-based; details: Enterovirus D, EVD68
Experimental: as §1
as §2, with “For CC50 measurements, the experiment was performed similarly but excluded viral infection.” left out, “For plaque reduction assays, an 1.2% avicel microcrystalline cellulose (FMC BioPolymer, Philadelphia, PA) overlay was used and cells were stained after 3 days as previously described^26.” left out

## CC(C)(C)C(NC(=O)CC12CC3CC(CC(C3)C1)C2)C(=O)N1CC2CCCC2C1C(=O)NC(C(=O)C(=O)NC1CC1)C1CCCCC1 [Jun11762, (1S,3aR,6aS)-2-((S)-2-(2-((3S,5S,7S)-adamantan-1-yl)acetamido)-3,3-dimethylbutanoyl)-N—((S)-1-cyclohexyl-3-(cyclopropylamino)-2,3-dioxopropyl)octahydrocyclopenta[c]pyrrole-1-carboxamide]
EV-D68 US/MO/14-18947
  antiviral activity, in words, relative to the named comparator: comparable enzymatic inhibition and antiviral activity as Jun8861
EV-D68 2A^pro
  enzymatic inhibition, in words, relative to the named comparator: comparable enzymatic inhibition and antiviral activity as Jun8861
[1]
  CC50: > 150 µM
[2]
  EC50: 269 ± 21.9 nM
[3]; Enterovirus D, EVD68, read-out: EC50 values over all five strains
  EC50: 43 to 269 nM
[3]; five EV-D68 strains, versus telaprevir
  fold improvement of EC50 compared to telaprevir: 3.1-4.6 fold
[4]
  EC50: 43 ± 3.3 nM
